For eight molecules, GI50 and TGI results are on record in PubChem BioAssay (NCI).

Common to all, as to assay: DTP human tumour cell line panel, 48 h
Assay [1] concerns A498 renal.
Assay [2] concerns BT-549 breast.
The subject of assay [3] is COLO 205 colon.
Assay [4] relates to MDA-MB-231 breast.
The test system of assay [5] is MOLT-4 leukemia.
Assay [6] relates to RXF 393 renal.
In assay [7] the test system is SF-295 CNS.
The subject of assay [8] is SK-MEL-5 melanoma.
Assay [9] concerns SNB-19 CNS.
Assay [10] has as its system SR leukemia.

Values joined by “and” are separate entries in the source; they are usually repeats but may differ in a detail not shown here. Equal entries are not always repeated.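 Briefly, cells in 96-well plates were exposed to five compound concentrations for 48 h, and endpoints were estimated by linear interpolation. At the GI50, growth is halved. TGI is the concentration that stops growth completely.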

In the case of `COC(=O)[C@]12CC[C@@H](C)[C@H](C)[C@@H]1C1=CC[C@@H]3[C@@]4(C)C[C@@H](O)[C@H](O)[C@@](C)(CO)[C@@H]4[C@H](O)C[C@@]3(C)[C@]1(C)CC2`, the GI50 in assay [1] is 16.6 µM; in [2], 12.6 µM; in assay [3], 14.8 µM; in assay [4], 13 µM; in [5], 4.58 µM; in assay [6], 9.32 µM. Moreover, the GI50 was 15 µM in assay [7], 15.3 µM in assay [8], 13.2 µM in [9] and 11.9 µM in [10]. Moreover, the total growth inhibition concentration (TGI) is 30.9 µM in assay [1]; 26.4 µM in [2]; 31.2 µM in assay [3]; 29.8 µM in assay [4]; 25.6 µM in assay [5]; 23.1 µM in assay [6]. For the same molecule, the concentration for total growth inhibition (TGI) amounted to 35.4 µM in assay [7], 28.9 µM in [8], 38.9 µM in assay [9] and 40.8 µM in assay [10].

Take `CN(C)c1ccc(/C=N/NC(=S)Nc2ccccc2)cc1`: the total growth inhibition concentration (TGI) in assay [1], in assay [2], in assay [3], in assay [4], in assay [5] and in assay [6] was more than 100 µM in each case. Further, the TGI in assay [7], in assay [8], in assay [9] and in assay [10] was more than 100 µM each time.

`Cc1ccc(NC2=C3CCCCC3OC2=O)cc1` (stereo not given): the GI50 was 65.9 µM in assay [1]; more than 100 µM in assay [2]; 78.1 µM in assay [3]; 35.2 µM in assay [4]; 19.1 µM in assay [5]; more than 100 µM in assay [6]. Also, the GI50 in assay [7] is 75 µM; in assay [8] it was 34.9 µM; in [9], 63.8 µM; in assay [10], 39.5 µM. Besides, the concentration for total growth inhibition (TGI) was more than 100 µM in assay [1]; more than 100 µM in assay [2]; more than 100 µM in [3]; more than 100 µM in assay [4]; 86 µM in assay [5]; more than 100 µM in [6]. Besides, the TGI in assay [7], in assay [8], in assay [9] and in assay [10] was more than 100 µM each time.

Regarding `C=C(C)C(=O)O[C@@H]1C[C@@]2(C)O[C@@H]2C[C@H](O)/C(C)=C/[C@H]2OC(=O)C(=C)[C@@H]21`, the TGI in [1], in [2], in assay [3], in assay [4], in assay [5] and in [6] was more than 100 µM throughout. Further, the TGI in assay [7], in assay [8], in assay [9] and in assay [10] was more than 100 µM throughout.

`CC(=O)N[C@@H](Cc1ccc(OP(=O)(O)O)cc1)C(=O)N[C@H]1CCC(=O)N2CCC[C@@H](C(=O)Nc3cccc4ccccc34)N2C1=O`: the GI50 in [1], in assay [2], in [3], in assay [4], in [5] and in assay [6] was more than 25 µM in each case. In addition, the GI50 in assay [7], in assay [8], in assay [9] and in [10] was more than 25 µM in each case. For the same molecule, the TGI in [1], in [2], in assay [3], in [4], in assay [5] and in assay [6] was more than 25 µM in each case. For the same molecule, the total growth inhibition concentration (TGI) in [7], in assay [8], in [9] and in assay [10] was more than 25 µM each time.

In the case of `NC(=S)N/N=C1\c2cc(Cl)ccc2-c2c1cc(Cl)cc2[N+](=O)[O-]`, the GI50 in assay [1] is 1.38 µM; in assay [2], 3.41 µM; in assay [3] it was 3.84 µM; in assay [4], 3.85 µM; in assay [5], 3.21 µM; in [6] it was 10.4 µM. The GI50 in assay [7] was 3.57 µM; in assay [8], 2.77 µM; in assay [9], 4.24 µM; in [10] it was 4.87 µM. Also, the concentration for total growth inhibition (TGI) amounted to 8.57 µM in assay [1]; 36.7 µM in assay [2]; 22.2 µM in [3]; 34.9 µM in assay [4]; 23.6 µM in assay [5]; 89.4 µM in assay [6]. Moreover, the TGI in assay [7] is 73.7 µM; in assay [8], 9.28 µM; in assay [9], more than 100 µM; in [10] it was more than 100 µM.

Take `NC(=S)N/N=C\c1nccc2c(C(F)(F)F)cccc12`: the GI50 in [1] was 0.433 µM; in assay [2], 0.395 µM; in assay [3], 0.237 µM; in assay [4], 0.281 µM; in [5] it was 0.355 µM; in [6] it was 0.251 µM. In addition, the 50% growth inhibitory concentration (GI50) was 0.341 µM in assay [7], 0.183 µM in assay [8], 0.382 µM in [9] and 0.0997 µM in [10]. The TGI in assay [1] is 10.6 µM; in [2] it was 7.71 µM; in assay [3], 10.8 µM; in assay [4] it was 17.6 µM; in assay [5] it was 15.6 µM; in [6], 2.53 µM. Besides, the total growth inhibition concentration (TGI) in [7] was 10.3 µM; in assay [8], 0.921 µM; in assay [9] it was more than 100 µM; in [10], more than 37 µM.

In the case of `C=CC(=O)Nc1cc(Nc2nccc(-c3cn(C)c4ccccc34)n2)c(OC)cc1N(C)CCN(C)C`, the GI50 is 1.11 µM and 1.48 µM in assay [1]; 3.52 µM and 2.95 µM in [2]; 1.62 µM and 1.43 µM in [3]; 1.59 µM and 1.7 µM in assay [4]; 1.77 µM and 1.49 µM in [5]; 1.45 µM and 1.34 µM in assay [6]. Moreover, the GI50 was 2.76 µM and 2.02 µM in assay [7]; 1.72 µM in assay [8]; 2.69 µM and 2.06 µM in [9]; 1.29 µM and 1.62 µM in assay [10]. For the same molecule, the total growth inhibition concentration (TGI) in assay [1] was 3.25 µM and 4.12 µM; in [2], 12.8 µM and > 10 µM; in assay [3], 3.14 µM and 2.99 µM; in assay [4], 3.45 µM and 3.6 µM; in assay [5] it was 5.08 µM and 3.66 µM; in [6], 3.1 µM and 2.98 µM. Moreover, the total growth inhibition concentration (TGI) is 8.31 µM and 4.61 µM in [7]; 3.13 µM in assay [8]; 18.4 µM and > 10 µM in [9]; 4.94 µM and 3.77 µM in assay [10].

One may read the GI50 as the concentration giving 50% growth inhibition. By TGI is commonly meant the concentration giving total growth inhibition. Read a high TGI as less potent growth arrest.
